Calls of active or inactive are those of the source. The rule behind the calls is not given here.
Experiments:
[1] = biological target: T1, Neuronal acetylcholine receptor; alpha4/beta2 (Rattus norvegicus) (UniProt P09483+P12390); assay: Displacement of [3H]epibatidine from alpha4beta2 nAChR in rat cortex up to 100 uM
[2] = biological target: T2, Neuronal acetylcholine receptor; alpha4/beta2 (Rattus norvegicus, UniProt P09483+P12390); assay: Displacement of [3H]epibatidine from alpha4beta2 nAChR in rat cortex
T2 sequence (P09483 whole entry): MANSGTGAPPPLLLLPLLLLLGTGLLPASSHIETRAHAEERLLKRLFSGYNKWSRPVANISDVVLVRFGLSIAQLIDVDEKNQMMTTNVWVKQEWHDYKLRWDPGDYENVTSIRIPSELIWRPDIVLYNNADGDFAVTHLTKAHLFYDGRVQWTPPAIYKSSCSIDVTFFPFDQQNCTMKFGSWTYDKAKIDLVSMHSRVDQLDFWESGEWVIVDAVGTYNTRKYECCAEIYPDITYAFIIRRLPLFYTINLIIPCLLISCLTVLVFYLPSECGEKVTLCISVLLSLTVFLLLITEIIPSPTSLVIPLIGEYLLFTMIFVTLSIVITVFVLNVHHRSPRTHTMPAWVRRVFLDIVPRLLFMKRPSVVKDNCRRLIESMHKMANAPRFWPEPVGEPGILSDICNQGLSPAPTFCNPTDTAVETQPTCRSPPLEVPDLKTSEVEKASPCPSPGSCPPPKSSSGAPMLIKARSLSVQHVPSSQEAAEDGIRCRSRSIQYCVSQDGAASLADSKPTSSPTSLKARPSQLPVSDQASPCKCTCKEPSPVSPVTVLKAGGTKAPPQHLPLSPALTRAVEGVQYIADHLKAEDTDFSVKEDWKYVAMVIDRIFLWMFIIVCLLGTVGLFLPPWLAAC
T2 sequence (P12390 whole entry): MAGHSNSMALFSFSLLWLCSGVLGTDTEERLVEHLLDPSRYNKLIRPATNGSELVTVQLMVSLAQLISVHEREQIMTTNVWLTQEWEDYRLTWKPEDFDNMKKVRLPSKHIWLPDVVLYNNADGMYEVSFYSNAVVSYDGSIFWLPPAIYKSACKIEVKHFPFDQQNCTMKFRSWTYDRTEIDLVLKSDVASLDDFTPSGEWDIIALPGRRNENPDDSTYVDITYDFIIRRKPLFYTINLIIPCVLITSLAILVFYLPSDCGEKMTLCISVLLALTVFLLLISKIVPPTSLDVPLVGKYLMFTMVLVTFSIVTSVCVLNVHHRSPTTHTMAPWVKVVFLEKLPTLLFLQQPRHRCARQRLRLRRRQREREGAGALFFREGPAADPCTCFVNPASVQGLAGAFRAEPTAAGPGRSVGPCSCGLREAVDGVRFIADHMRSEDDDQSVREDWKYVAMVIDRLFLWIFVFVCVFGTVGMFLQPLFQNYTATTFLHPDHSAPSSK

[3] = biological target: Neuronal acetylcholine receptor subunit alpha-7 (Rattus norvegicus, UniProt Q05941); assay: Displacement of [125I]alpha-bungarotoxin from alpha7 nAChR from rat hippocampus; type: tissue-based
Neuronal acetylcholine receptor subunit alpha-7 (Rattus norvegicus, UniProt Q05941), sequence (Q05941 whole entry): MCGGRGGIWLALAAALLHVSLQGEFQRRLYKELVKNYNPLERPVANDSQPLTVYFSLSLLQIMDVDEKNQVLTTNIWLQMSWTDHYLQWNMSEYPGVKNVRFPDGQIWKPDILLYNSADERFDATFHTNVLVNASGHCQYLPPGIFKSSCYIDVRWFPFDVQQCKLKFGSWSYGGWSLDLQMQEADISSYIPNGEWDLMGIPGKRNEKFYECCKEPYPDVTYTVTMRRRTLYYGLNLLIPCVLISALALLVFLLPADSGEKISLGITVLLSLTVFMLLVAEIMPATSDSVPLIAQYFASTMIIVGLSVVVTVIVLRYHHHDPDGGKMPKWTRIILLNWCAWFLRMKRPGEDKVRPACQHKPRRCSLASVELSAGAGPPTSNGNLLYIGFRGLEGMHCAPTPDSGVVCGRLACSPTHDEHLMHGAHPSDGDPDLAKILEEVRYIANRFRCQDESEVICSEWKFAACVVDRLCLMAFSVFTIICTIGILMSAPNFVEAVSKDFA

Rattus norvegicus = species on record: Rattus norvegicus; assay: Selectivity ratio of Ki for alpha7 nAChR in rat hippocampus to Ki for alpha4beta2 nAChR in rat cortex; type: tissue-based
[4] = Selectivity ratio of Ki for human alpha3beta4 nAChR to Ki for alpha4beta2 nAChR in rat cortex
[5] = biological target: T3, Acetylcholine receptor; alpha1/beta1/delta/gamma (Homo sapiens, UniProt P02708+P07510+P11230+Q07001); assay: Displacement of [125I]alpha-bungarotoxin from human alpha2betagammadelta nAChR at 10 uM; type: protein-complex assay
T3 sequence (P02708 whole entry): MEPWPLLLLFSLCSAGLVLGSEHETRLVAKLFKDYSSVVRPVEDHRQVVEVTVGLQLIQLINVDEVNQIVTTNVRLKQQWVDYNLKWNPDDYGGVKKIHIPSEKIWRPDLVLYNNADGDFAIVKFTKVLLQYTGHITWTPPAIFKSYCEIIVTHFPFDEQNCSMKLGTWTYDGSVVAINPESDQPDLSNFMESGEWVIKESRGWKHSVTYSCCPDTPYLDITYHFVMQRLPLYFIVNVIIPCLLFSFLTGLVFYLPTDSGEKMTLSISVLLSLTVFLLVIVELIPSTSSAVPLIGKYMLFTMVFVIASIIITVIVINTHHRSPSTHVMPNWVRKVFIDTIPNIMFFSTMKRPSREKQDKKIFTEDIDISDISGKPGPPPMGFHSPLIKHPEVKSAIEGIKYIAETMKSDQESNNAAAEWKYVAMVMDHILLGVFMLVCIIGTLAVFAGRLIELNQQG
T3 sequence (P07510 whole entry): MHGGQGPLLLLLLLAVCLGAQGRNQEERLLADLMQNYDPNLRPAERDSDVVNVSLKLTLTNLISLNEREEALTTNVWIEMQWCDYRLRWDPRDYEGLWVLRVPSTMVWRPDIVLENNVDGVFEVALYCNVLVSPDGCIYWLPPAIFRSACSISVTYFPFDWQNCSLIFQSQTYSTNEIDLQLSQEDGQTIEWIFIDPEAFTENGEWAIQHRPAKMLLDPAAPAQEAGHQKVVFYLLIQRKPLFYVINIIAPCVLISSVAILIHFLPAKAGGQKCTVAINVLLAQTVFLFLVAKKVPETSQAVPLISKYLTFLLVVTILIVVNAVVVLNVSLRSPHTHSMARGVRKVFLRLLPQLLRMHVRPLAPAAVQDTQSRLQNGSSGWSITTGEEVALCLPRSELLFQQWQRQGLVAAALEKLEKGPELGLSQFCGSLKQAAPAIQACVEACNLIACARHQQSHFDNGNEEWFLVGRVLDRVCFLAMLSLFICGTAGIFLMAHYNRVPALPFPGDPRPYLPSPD
T3 sequence (P11230 whole entry): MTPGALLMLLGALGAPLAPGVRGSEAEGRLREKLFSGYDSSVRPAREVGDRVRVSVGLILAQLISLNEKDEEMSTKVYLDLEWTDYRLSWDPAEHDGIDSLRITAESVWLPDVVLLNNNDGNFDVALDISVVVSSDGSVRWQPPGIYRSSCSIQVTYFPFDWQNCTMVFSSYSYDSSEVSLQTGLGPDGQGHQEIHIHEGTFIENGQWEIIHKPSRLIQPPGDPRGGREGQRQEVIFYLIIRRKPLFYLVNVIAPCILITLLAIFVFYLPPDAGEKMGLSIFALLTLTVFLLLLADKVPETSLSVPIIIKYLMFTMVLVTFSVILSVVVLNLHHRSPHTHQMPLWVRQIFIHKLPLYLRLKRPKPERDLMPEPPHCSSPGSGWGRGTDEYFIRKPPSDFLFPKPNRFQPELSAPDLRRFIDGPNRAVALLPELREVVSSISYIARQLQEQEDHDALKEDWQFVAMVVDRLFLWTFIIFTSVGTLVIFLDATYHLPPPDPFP
T3 sequence (Q07001 whole entry): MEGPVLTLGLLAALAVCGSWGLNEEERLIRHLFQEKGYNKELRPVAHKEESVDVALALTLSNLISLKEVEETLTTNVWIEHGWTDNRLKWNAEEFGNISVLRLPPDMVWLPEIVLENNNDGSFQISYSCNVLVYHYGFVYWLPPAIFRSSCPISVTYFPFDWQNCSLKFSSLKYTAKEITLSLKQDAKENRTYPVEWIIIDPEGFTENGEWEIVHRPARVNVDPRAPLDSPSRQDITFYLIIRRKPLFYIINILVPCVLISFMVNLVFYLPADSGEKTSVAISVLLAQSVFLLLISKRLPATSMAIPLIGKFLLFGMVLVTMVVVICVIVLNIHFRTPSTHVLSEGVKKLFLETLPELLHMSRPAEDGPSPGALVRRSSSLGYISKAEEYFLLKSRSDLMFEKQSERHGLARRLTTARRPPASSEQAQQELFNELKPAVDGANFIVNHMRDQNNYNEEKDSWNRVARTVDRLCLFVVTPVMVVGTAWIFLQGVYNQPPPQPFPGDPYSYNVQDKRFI

[6] = biological target: T1, Neuronal acetylcholine receptor; alpha4/beta2 (Rattus norvegicus); assay: (§1) Antagonist activity at alpha4beta2 nAChR in rat brain striatal slices assessed as inhibition of nicotine-induced release of [3H]dopamine release; type: tissue-based; details: concentration not given here
[7] = biological target: T2, Neuronal acetylcholine receptor; alpha4/beta2; assay: as §1; type: tissue-based
[8] = biological target: T1, Neuronal acetylcholine receptor; alpha4/beta2 (Rattus norvegicus); assay: Agonist activity at alpha4beta2 nAChR in rat brain striatal slices assessed as release of [3H]dopamine release relative to nicotine; type: tissue-based
[9] = biological target: T2, Neuronal acetylcholine receptor; alpha4/beta2; assay: Agonist activity at alpha4beta2 nAChR in rat brain striatal slices assessed as release of [3H]dopamine release; type: tissue-based
[10] = biological target: T3, Acetylcholine receptor; alpha1/beta1/delta/gamma; assay: Displacement of [125I]alpha-bungarotoxin from human alpha2betagammadelta nAChR; type: protein-complex assay
[11] = biological target: Neuronal acetylcholine receptor; alpha3/beta4 (Homo sapiens, UniProt P30926+P32297); assay: Displacement of [3H]epibatidine from human alpha3beta4 nAChR expressed in HEK cells; type: cell-based, HEK293
Neuronal acetylcholine receptor; alpha3/beta4, sequence (P30926 whole entry): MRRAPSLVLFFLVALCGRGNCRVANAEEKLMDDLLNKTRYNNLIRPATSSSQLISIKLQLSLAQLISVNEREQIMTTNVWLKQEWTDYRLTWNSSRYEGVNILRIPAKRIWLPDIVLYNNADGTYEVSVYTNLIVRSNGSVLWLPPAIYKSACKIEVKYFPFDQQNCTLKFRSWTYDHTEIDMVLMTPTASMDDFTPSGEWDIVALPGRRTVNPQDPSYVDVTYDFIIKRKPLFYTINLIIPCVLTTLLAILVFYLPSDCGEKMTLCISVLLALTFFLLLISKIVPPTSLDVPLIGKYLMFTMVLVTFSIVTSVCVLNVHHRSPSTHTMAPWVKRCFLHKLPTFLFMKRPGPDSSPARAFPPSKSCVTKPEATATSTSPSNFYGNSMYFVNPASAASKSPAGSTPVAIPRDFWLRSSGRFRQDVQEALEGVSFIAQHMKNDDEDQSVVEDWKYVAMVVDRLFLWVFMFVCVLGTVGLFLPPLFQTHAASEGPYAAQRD
Neuronal acetylcholine receptor; alpha3/beta4, sequence (P32297 whole entry): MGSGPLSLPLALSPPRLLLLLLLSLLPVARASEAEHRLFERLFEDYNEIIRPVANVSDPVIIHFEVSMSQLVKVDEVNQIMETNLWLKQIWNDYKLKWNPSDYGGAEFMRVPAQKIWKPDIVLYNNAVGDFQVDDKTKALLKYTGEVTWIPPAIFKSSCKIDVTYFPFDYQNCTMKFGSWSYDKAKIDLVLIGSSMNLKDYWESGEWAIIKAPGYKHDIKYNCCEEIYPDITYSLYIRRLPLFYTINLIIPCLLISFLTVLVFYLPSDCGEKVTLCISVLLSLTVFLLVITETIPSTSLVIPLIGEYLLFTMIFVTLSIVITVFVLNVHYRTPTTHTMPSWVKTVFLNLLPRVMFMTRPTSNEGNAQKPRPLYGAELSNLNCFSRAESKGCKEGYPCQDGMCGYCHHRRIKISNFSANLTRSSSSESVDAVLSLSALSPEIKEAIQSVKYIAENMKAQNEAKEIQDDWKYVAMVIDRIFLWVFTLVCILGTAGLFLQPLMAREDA

[12] = biological target: Neuronal acetylcholine receptor subunit alpha-7 (Homo sapiens, UniProt P36544); assay: Displacement of [3H]methyllycaconitine from alpha7 nAChR (unknown origin)
[13] = biological target: Neuronal acetylcholine receptor; alpha4/beta2 (Homo sapiens, UniProt P17787+P43681); assay: Displacement of [3H]epibatidine from alpha4beta2 nAChR (unknown origin); type: protein-complex assay

Compound: CC(=O)N[C@H]1CCCN2CCCC[C@@H]12
- Activity [1]: inactive

Compound: CCC(=O)N[C@H]1CCCN2CCCC[C@@H]12 (racemic)
- Ki [2]: 4.44 µM

Compound: CC(C)C(=O)N[C@H]1CCN2CCCC[C@@H]12 (racemic)
- Ki [3]: 26 µM
- Ki [2]: 283 µM

Compound: CC(C)C(=O)N[C@H]1CCCN2CCCC[C@H]12 (racemic)
- Ki [2]: 6.05 µM

Compound: CCC(C)C(=O)N[C@H]1CCN2CCC[C@H]12 (stereo not given in full)
- Ratio Ki (Rattus norvegicus): 136
- Ratio Ki [4]: 126
- Activity [5]: 5%
- inhibition [6]: 46%
- IC50 [7]: 1.6 µM
- Efficacy [8]: 43%
- EC50 [9]: 5.8 µM
- Ki [10]: > 10 µM
- Ki [3]: 40 µM
- Ki [11]: 37 µM
- Ki [2]: 0.29 µM

Compound: O=c1cccc2n1C[C@@H]1CNC[C@H]2C1 [CYTISINICLINE]
- Ki [3]: 0.23 µM
- Ki [11]: 0.28 µM
- Ki [2]: 0.0021 µM

Compound: CC(C)C(=O)N[C@H]1CCCN2CCCC[C@@H]12 (racemic)
- Ki [2]: 6.81 µM

Compound: CC(C)C(=O)N[C@@H]1CCN2CCCC[C@@H]12 (racemic)
- Ki [3]: 29 µM
- Ki [2]: 100 µM

Compound: CCC(=O)N[C@H]1CCCN2CCCC[C@H]12 (racemic)
- Ki [2]: 6.15 µM

Compound: CC(=O)C1=CC[C@@H]2CC[C@H]1N2
- Ki [12]: 100 µM
- Ki [13]: 0.094 µM

— ChEMBL document CHEMBL2331532, “(+)-Laburnamine, a natural selective ligand and partial agonist for the α4β2 nicotinic receptor subtype” (J Nat Prod, 2013)
